Experimental data: PubChem BioAssay (NCI)
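Exposure lasted 48 hours, with cells grown in 96-well plates and compounds tested at five concentrations. GI50: concentration for 50% inhibition of growth. The concentration for full growth arrest is given as TGI.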

What was measured:
Test in all cases: NCI-60 cell line screen, 48 h
MDA-MB-435 = test system: MDA-MB-435
IGROV1 ovarian = test system: IGROV1 ovarian
NCI/ADR-RES ovarian = test system: NCI/ADR-RES ovarian
BT-549 breast = test system: BT-549 breast
SNB-19 CNS = test system: SNB-19 CNS
NCI-H522 lung = test system: NCI-H522 lung
NCI-H460 lung = test system: NCI-H460 lung
DU-145 prostate = test system: DU-145 prostate
T-47D breast = test system: T-47D breast
HOP-62 NSCLC = test system: HOP-62 NSCLC
SF-539 CNS = test system: SF-539 CNS
SF-295 CNS = test system: SF-295 CNS
SNB-75 CNS = test system: SNB-75 CNS
MDA-MB-231 breast = test system: MDA-MB-231 breast
OVCAR-4 ovarian = test system: OVCAR-4 ovarian
A549 NSCLC = test system: A549 NSCLC
SK-OV-3 ovarian = test system: SK-OV-3 ovarian
M14 melanoma = test system: M14 melanoma
SN12C renal = test system: SN12C renal
CCRF-CEM leukemia = test system: CCRF-CEM leukemia
HOP-92 NSCLC = test system: HOP-92 NSCLC
HL-60(TB) leukemia = test system: HL-60(TB) leukemia
HCC-2998 colon = test system: HCC-2998 colon
SK-MEL-2 melanoma = test system: SK-MEL-2 melanoma
NCI-H226 lung = test system: NCI-H226 lung
HS 578T breast = test system: HS 578T breast
MALME-3M melanoma = test system: MALME-3M melanoma
LOX IMVI melanoma = test system: LOX IMVI melanoma
RXF 393 renal = test system: RXF 393 renal
COLO 205 colon = test system: COLO 205 colon
786-0 renal = test system: 786-0 renal
SW-620 colon = test system: SW-620 colon
NCI-H23 lung = test system: NCI-H23 lung
HCT-15 colon = test system: HCT-15 colon
K-562 leukemia = test system: K-562 leukemia
CAKI-1 renal = test system: CAKI-1 renal
SF-268 CNS = test system: SF-268 CNS
OVCAR-8 ovarian = test system: OVCAR-8 ovarian
KM12 colon = test system: KM12 colon
OVCAR-3 ovarian = test system: OVCAR-3 ovarian
A498 renal = test system: A498 renal
U251 CNS = test system: U251 CNS
HCT-116 colon = test system: HCT-116 colon
ACHN renal = test system: ACHN renal
SK-MEL-28 melanoma = test system: SK-MEL-28 melanoma
MOLT-4 leukemia = test system: MOLT-4 leukemia
OVCAR-5 ovarian = test system: OVCAR-5 ovarian
UO-31 renal = test system: UO-31 renal
PC-3 prostate = test system: PC-3 prostate
UACC-257 melanoma = test system: UACC-257 melanoma
MCF7 breast = test system: MCF7 breast
SK-MEL-5 melanoma = test system: SK-MEL-5 melanoma
EKVX NSCLC = test system: EKVX NSCLC
TK-10 renal = test system: TK-10 renal
UACC-62 melanoma = test system: UACC-62 melanoma

CCOC(=O)N1CCN(S(=O)(=O)c2oc(-c3ccc(Cl)cc3)nc2C#N)CC1
GI50 (MDA-MB-435): 2.32 µM
TGI (MDA-MB-435): 5.24 µM
GI50 (IGROV1 ovarian): 1.75 µM
TGI (IGROV1 ovarian): 3.47 µM
GI50 (NCI/ADR-RES ovarian): 12.2 µM
TGI (NCI/ADR-RES ovarian): 47.6 µM
GI50 (BT-549 breast): 2.22 µM
TGI (BT-549 breast): 5.6 µM
GI50 (SNB-19 CNS): 14.6 µM
TGI (SNB-19 CNS): 50.7 µM
GI50 (NCI-H522 lung): 0.956 µM
TGI (NCI-H522 lung): 3.07 µM
GI50 (NCI-H460 lung): 15 µM
TGI (NCI-H460 lung): 46 µM
GI50 (DU-145 prostate): 2.48 µM
TGI (DU-145 prostate): 6.31 µM
GI50 (T-47D breast): 2.29 µM
TGI (T-47D breast): 5.94 µM
GI50 (HOP-62 NSCLC): 13.5 µM
TGI (HOP-62 NSCLC): > 100 µM
GI50 (SF-539 CNS): 3.34 µM
TGI (SF-539 CNS): 10.5 µM
GI50 (SF-295 CNS): 28.2 µM
TGI (SF-295 CNS): > 100 µM
GI50 (SNB-75 CNS): 11.4 µM
TGI (SNB-75 CNS): > 100 µM
GI50 (MDA-MB-231 breast): 1.94 µM
TGI (MDA-MB-231 breast): 4.24 µM
GI50 (OVCAR-4 ovarian): 2.36 µM
TGI (OVCAR-4 ovarian): 5.5 µM
GI50 (A549 NSCLC): 24.9 µM
TGI (A549 NSCLC): > 100 µM
GI50 (SK-OV-3 ovarian): 74.1 µM
TGI (SK-OV-3 ovarian): > 100 µM
GI50 (M14 melanoma): 1.59 µM
TGI (M14 melanoma): 3.67 µM
GI50 (SN12C renal): 1.66 µM
TGI (SN12C renal): 3.23 µM
GI50 (CCRF-CEM leukemia): 0.36 µM
TGI (CCRF-CEM leukemia): 5.13 µM
GI50 (HOP-92 NSCLC): 1.8 µM
TGI (HOP-92 NSCLC): 3.75 µM
GI50 (HL-60(TB) leukemia): 2.14 µM
TGI (HL-60(TB) leukemia): 7.15 µM
GI50 (HCC-2998 colon): 3.15 µM
TGI (HCC-2998 colon): 10.8 µM
GI50 (SK-MEL-2 melanoma): 3.96 µM
TGI (SK-MEL-2 melanoma): 13.8 µM
GI50 (NCI-H226 lung): 64.3 µM
TGI (NCI-H226 lung): > 100 µM
GI50 (HS 578T breast): 4.2 µM
TGI (HS 578T breast): 23.8 µM
GI50 (MALME-3M melanoma): 1.67 µM
TGI (MALME-3M melanoma): 3.09 µM
GI50 (LOX IMVI melanoma): 0.573 µM
TGI (LOX IMVI melanoma): 2.02 µM
GI50 (RXF 393 renal): 1.82 µM
TGI (RXF 393 renal): 3.25 µM
GI50 (COLO 205 colon): 2.05 µM
TGI (COLO 205 colon): 4.25 µM
GI50 (786-0 renal): 1.65 µM
TGI (786-0 renal): 3.24 µM
GI50 (SW-620 colon): 1.69 µM
TGI (SW-620 colon): 3.75 µM
GI50 (NCI-H23 lung): 3.93 µM
TGI (NCI-H23 lung): 15.1 µM
GI50 (HCT-15 colon): 1.49 µM
TGI (HCT-15 colon): 3.3 µM
GI50 (K-562 leukemia): 1.59 µM
TGI (K-562 leukemia): > 100 µM
GI50 (CAKI-1 renal): 1.75 µM
TGI (CAKI-1 renal): 3.14 µM
GI50 (SF-268 CNS): 2.56 µM
TGI (SF-268 CNS): 6.75 µM
GI50 (OVCAR-8 ovarian): 3.23 µM
TGI (OVCAR-8 ovarian): 23.3 µM
GI50 (KM12 colon): 10.5 µM
TGI (KM12 colon): 35.6 µM
GI50 (OVCAR-3 ovarian): 1.79 µM
TGI (OVCAR-3 ovarian): 3.38 µM
GI50 (A498 renal): 17.2 µM
TGI (A498 renal): > 100 µM
GI50 (U251 CNS): 5.49 µM
TGI (U251 CNS): 19.6 µM
GI50 (HCT-116 colon): 1.74 µM
TGI (HCT-116 colon): 3.7 µM
GI50 (ACHN renal): 1.76 µM
TGI (ACHN renal): 3.15 µM
GI50 (SK-MEL-28 melanoma): 2.12 µM
TGI (SK-MEL-28 melanoma): 4.23 µM
GI50 (MOLT-4 leukemia): 0.739 µM
TGI (MOLT-4 leukemia): 4.35 µM
GI50 (OVCAR-5 ovarian): 3.92 µM
TGI (OVCAR-5 ovarian): 13.3 µM
GI50 (UO-31 renal): 1.54 µM
TGI (UO-31 renal): 2.88 µM
GI50 (PC-3 prostate): 2.24 µM
TGI (PC-3 prostate): 5.77 µM
GI50 (UACC-257 melanoma): 2.37 µM
TGI (UACC-257 melanoma): 7.71 µM
GI50 (MCF7 breast): 1.75 µM
TGI (MCF7 breast): 4.21 µM
GI50 (SK-MEL-5 melanoma): 2.51 µM
TGI (SK-MEL-5 melanoma): 6.46 µM
GI50 (EKVX NSCLC): 9.71 µM
TGI (EKVX NSCLC): 27.2 µM
GI50 (TK-10 renal): 1.8 µM
TGI (TK-10 renal): 3.29 µM
GI50 (UACC-62 melanoma): 3.07 µM
TGI (UACC-62 melanoma): 12.7 µM
